This note sets out measurements from ChEMBL document CHEMBL5104180, “Design, Synthesis, and Evaluation of New Sugar-Substituted Imidazole Derivatives as Selective c-MYC Transcription Repressors Targeting the Promoter G-Quadruplex” (J Med Chem, 2022).

The IC50 is the concentration needed to halve the response being measured. In general, Kd refers to the equilibrium constant for the complex coming apart. Broadly, the ΔTm is the shift of the melting midpoint relative to a reference.

Series [1] in a line: Cytotoxicity against human HBL-100 cells assessed as reduction in cell viability measured after 48 hrs by MTT assay. It is filed as toxicity, cell-based. (Tetrazolium dyes change colour on reduction, which living cells bring about.)
Series [2] in a line: Binding affinity to human G-rich Htg22 DNA assessed as binding constant by SPR analysis.
For series [3], the system named is Quadruplex DNA. As to the kind of experiment: Inhibition of c-MYC G4 quadruplex DNA in HEK293T cells co-transfected with Renilla and firefly luciferase assessed as decrease in relative luciferase measured after 24 hrs by dual luciferase reporter assay. The settings on record: Homo sapiens. It is filed as cell-based.
Series [4] has as its system MDA-MB-231. As to the kind of experiment: Downregulation of c-MYC expression in human MDA-MB-231 cells measured after 48 hrs by western blot analysis. It is filed as functional, cell-based.
Series [5] relates to MDA-MB-231. Briefly: Downregulation of c-MYC mRNA level in human MDA-MB-231 cells measured after 24 hrs by RT-PCR analysis. It is filed as functional, cell-based.
The nature of series [6]: Binding affinity to G-rich HRAS DNA (unknown origin) assessed as binding constant by SPR analysis. (In SPR one partner is held on a chip, and binding of the other changes the refractive index at the surface.)
Series [7] concerns HepG2. Briefly: Cytotoxicity against human HepG2 cells measured after 48 hrs. It is filed as functional, cell-based.
Series [8] can be described thus: Binding affinity to G-rich NRAS RNA (unknown origin) assessed as binding constant by SPR analysis.
In series [9] the test system is DHX36/c-MYC G4 quadruplex DNA. Briefly: Disruption of DHX36/c-MYC G4 quadruplex DNA (unknown origin) interaction incubated for 1 hrs by ELISA. It is filed as protein assay. On the technique in general: An ELISA detects its analyte on a solid surface through an enzyme-linked reagent.
Series [10] relates to BLM/c-MYC G4 quadruplex DNA. Briefly: Disruption of BLM/c-MYC G4 quadruplex DNA (unknown origin) interaction incubated for 1 hrs by ELISA. Format: protein assay.
Series [11] relates to MDA-MB-231. Briefly: Cytotoxicity against human MDA-MB-231 cells assessed as reduction in cell viability measured after 48 hrs by MTT assay. Format: functional, cell-based. The settings on record: MDA-MB-231, 48 h.
A further series concerns MCF7. As to the kind of experiment: Cytotoxicity against human MCF7 cells measured after 48 hrs. Format: functional, cell-based.
Series [12] deals with Quadruplex DNA. Briefly: Inhibition of c-MYC G4 quadruplex DNA in HEK293T cells co-transfected with Renilla and firefly luciferase assessed as decrease in relative luciferase at 2.5 to 5 uM measured after 24 hrs by dual luciferase reporter assay. It is filed as cell-based. The settings on record: Homo sapiens, dose 2.5-5 µM.
Series [13] has as its system NM23-H2/c-MYC G4 quadruplex DNA. As to the kind of experiment: Disruption of NM23-H2/c-MYC G4 quadruplex DNA (unknown origin) interaction incubated for 1 hrs by ELISA. Format: protein assay.
The target in series [14] is Quadruplex DNA. Briefly: Binding affinity to c-MYC G4- quadruplex DNA Pu22 (unknown origin) assessed as binding constant by SPR analysis. Format: nucleic-acid assay.
Series [15] is described as follows: Binding affinity to Hairpin DNA (unknown origin) assessed as binding constant by SPR analysis.
For series [16], the system named is MDA-MB-231. Briefly: Antitumor activity against human MDA-MB-231 cells xenografted in BALB/c-nu/nu mouse assessed as relative increment ratio at 2.5 mg/kg, ip measured for 24 days. Format: functional. The following applies: time 24 day.
Series [17] deals with Quadruplex DNA. As to the kind of experiment: Stabilization of c-MYC G4 quadruplex DNA Pu22 (unknown origin) assessed as change in melting temperature at 2 uM by CD spectroscopy. Format: nucleic-acid assay.
The nature of series [18]: Binding affinity to G-rich KRAS DNA (unknown origin) assessed as binding constant by SPR analysis.
The test system of series [19] is MDA-MB-231. Briefly: Antitumor activity against human MDA-MB-231 cells xenografted in BALB/c-nu/nu mouse assessed as tumor growth inhibition at 2.5 mg/kg, ip measured for 24 days. It is filed as functional. The settings on record: MDA-MB-231, 576 h, time 24 day, read-out: TGI.
Series [20] concerns the target Quadruplex DNA. As to the kind of experiment: Binding affinity to c-MYC G4 quadruplex DNA Pu22 (unknown origin) assessed as binding constant by SPR analysis. Format: nucleic-acid assay.
The subject of series [21] is HepG2. Briefly: Cytotoxicity against human HepG2 cells assessed as reduction in cell viability measured after 48 hrs by MTT assay. The following applies: HepG2, 48 h. Format: functional, cell-based.
The test system of a further series is SiHa. As to the kind of experiment: Cytotoxicity against human SiHa cells measured after 48 hrs. It is filed as functional, cell-based.
Series [22] has as its system MDA-MB-231. Briefly: Cytotoxicity against human MDA-MB-231 cells measured after 48 hrs. Format: functional, cell-based.
In the next series the target is RNA. Briefly: Binding affinity to NRAS RNA mutant (unknown origin) assessed as binding constant by SPR analysis.
For series [23], the system named is Quadruplex DNA. Briefly: Inhibition of c-MYC G4 quadruplex DNA mutant in HEK293T cells co-transfected with Renilla and firefly luciferase assessed as decrease in relative luciferase at 2.5 to 5 uM measured after 24 hrs by dual luciferase reporter assay. It is filed as cell-based. The settings on record: Homo sapiens, dose 2.5-5 µM.
For series [24], the system named is MDA-MB-231. As to the kind of experiment: Downregulation of VEGF expression in human MDA-MB-231 cells measured after 48 hrs by western blot analysis. Format: functional, cell-based.

The source made the active and inactive calls. The rule behind the calls is not given here.

In the case of `CCn1c2ccccc2c2cc(-c3nc(-c4ccc(N5CCN(C)CC5)cc4)c(-c4ccc(N5CCN(C)CC5)cc4)n3-c3ccc(OC)cc3)ccc21`, in [1], the IC50 at 48 h was found to be 11.2 µM. Besides, the equilibrium dissociation constant (Kd) in series [2] was > 20 µM; in series [6], 15.1 µM; in series [8], > 20 µM; on Quadruplex DNA [14] it was 7 µM; in series [15], > 20 µM; in series [18], 15.1 µM. The Kd at Quadruplex DNA [20] and on RNA was > 20 µM in each case. Also, the result in the series on Quadruplex DNA [3], in the series with MDA-MB-231 [4], in the series on MDA-MB-231 [5], with HepG2 [7], in the series with MCF7 and in the series on SiHa was Active. The outcome with MDA-MB-231 [22] was Active. The 50% inhibitory concentration (IC50) in series [9] came out at 5 µM; in series [10] it was 14.6 µM; with MDA-MB-231 [11], 5.1 µM; in series [13] it was 25.8 µM; in the series on HepG2 [21], 6.1 µM. For the same compound, in the series on Quadruplex DNA [12], the inhibition entry is “Active”. The Activity in the series with MDA-MB-231 [16] is 72.3%. Also, in the series on Quadruplex DNA [17], the thermal shift (ΔTm) was determined as 12.5 °C. Further, in the series on MDA-MB-231 [19], the inhibition in vivo at 2.5 mg/kg was determined as 55.5%.
As for `Cc1sc2c(c1C)C(c1ccc(Cl)cc1)=NC(CC(=O)OC(C)(C)C)c1nnc(C)n1-2` (stereo unspecified), the result in the series on Quadruplex DNA [23], with Quadruplex DNA [3], in the series with MDA-MB-231 [4], in the series with MDA-MB-231 [5] and with MDA-MB-231 [24] was Active. Further, in the series on Quadruplex DNA [12], the inhibition entry is “Active”.
